Results reported in patent publication US20250170248A1, “SMARCA DEGRADERS AND USES THEREOF” (Kymera Therapeutics, Inc., priority 2021, published 2025).

Assays:
Type in all cases: cell-based
[1] = biological target: T1, SMARCA2 (Homo sapiens, UniProt P51531); experiment: MSD SMARCA2 degradation in A549 cell line; details: for Dmax: A549, A549 cells; for Dmax / DC50: 24 h; for DC50: read-out: SMARCA2 MSD A549 degradation 24 h: Average external-Abs DC50
Method in brief: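 SMARCA2 protein remaining after 24 h exposure of A549 cells (top concentration 1000 nM, 3-fold dilutions) was measured by MSD electrochemiluminescence immunoassay of cell lysates. Results are given as binned DC50 and maximal degradation (Dmax) codes.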

[2] = biological target: T2, SMARCA4 (Homo sapiens, UniProt P51532); experiment: SMARCA4 Western blot degradation in MV4-11 cells; details: for Dmax: MV4-11, MV4-11 cells, read-out: SMARCA4 MSD MV411 degradation 24 h: average Dmax %; for Dmax / DC50: 24 h; for DC50: read-out: SMARCA4 MSD MV411 degradation 24 h: Mean external-Abs DC50
T2 construct: SMARCA2/SMARCA4 protein degradation selectivity in MV4-11 cells; endogenous in cells; host or cells: MV4-11
T2 sequence (P51532 whole entry): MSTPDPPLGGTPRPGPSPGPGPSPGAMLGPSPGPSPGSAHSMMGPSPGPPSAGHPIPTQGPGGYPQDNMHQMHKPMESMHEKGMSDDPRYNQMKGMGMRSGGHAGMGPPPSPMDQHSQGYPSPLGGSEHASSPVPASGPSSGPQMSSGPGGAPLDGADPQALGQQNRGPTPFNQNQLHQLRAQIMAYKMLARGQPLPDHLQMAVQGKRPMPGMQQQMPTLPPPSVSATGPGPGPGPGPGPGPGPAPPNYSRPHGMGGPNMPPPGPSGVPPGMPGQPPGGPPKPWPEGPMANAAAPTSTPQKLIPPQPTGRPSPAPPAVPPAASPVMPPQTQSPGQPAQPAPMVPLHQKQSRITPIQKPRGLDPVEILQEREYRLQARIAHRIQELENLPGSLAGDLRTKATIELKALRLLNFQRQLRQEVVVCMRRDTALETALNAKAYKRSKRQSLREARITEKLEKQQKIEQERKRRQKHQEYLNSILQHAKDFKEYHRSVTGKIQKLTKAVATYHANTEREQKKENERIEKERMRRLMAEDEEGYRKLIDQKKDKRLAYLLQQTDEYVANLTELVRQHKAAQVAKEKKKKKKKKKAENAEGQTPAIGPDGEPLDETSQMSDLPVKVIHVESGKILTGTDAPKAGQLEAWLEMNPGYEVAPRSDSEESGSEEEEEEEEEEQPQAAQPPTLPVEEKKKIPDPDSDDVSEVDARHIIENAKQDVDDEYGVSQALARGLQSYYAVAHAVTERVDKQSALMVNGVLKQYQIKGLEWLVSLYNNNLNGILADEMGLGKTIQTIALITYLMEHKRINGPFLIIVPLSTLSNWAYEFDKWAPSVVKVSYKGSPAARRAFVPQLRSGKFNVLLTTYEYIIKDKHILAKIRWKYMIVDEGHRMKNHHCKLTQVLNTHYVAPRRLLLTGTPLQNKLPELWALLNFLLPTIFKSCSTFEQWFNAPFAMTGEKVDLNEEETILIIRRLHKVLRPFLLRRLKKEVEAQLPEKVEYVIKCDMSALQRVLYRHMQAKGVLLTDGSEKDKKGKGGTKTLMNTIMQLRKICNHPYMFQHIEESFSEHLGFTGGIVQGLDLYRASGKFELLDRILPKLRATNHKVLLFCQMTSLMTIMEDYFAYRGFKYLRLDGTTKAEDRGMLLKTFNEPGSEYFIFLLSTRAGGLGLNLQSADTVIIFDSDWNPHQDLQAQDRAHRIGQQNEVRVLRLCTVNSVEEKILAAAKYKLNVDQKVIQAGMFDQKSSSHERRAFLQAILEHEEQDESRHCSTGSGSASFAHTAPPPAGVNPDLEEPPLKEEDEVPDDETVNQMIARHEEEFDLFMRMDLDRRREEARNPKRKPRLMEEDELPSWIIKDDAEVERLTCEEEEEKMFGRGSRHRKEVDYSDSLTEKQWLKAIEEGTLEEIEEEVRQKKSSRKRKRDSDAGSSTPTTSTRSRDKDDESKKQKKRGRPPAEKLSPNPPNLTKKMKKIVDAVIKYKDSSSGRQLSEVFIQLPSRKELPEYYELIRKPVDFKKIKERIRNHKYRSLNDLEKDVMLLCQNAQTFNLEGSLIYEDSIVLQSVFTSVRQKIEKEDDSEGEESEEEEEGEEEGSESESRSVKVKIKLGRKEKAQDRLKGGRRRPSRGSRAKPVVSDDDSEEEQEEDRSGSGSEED
Method in brief: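 Protein levels quantified by LI-COR Western blot (beta-actin loading control) in RIPA lysates of MV4-11 cells after 24 h compound exposure. Degradation reported as DC50, Dmax % at 24 h and SMARCA2 vs SMARCA4 selectivity, each binned into letter codes.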

[3] = biological target: T1, SMARCA2; experiment: SMARCA2 Western blot degradation in MV4-11 cells; design: SMARCA2/SMARCA4 protein degradation selectivity in MV4-11 cells; endogenous in cells; host or cells: MV4-11; details: for Dmax: MV4-11, MV4-11 cells, read-out: SMARCA2 MSD MV411 degradation 24 h: average Dmax %; for DC50: read-out: SMARCA2 MSD MV411 degradation 24 h: Mean external-Abs DC50; for Selectivity in MV411: SMARCA2/4 selectivity

T1 sequence (P51531 whole entry): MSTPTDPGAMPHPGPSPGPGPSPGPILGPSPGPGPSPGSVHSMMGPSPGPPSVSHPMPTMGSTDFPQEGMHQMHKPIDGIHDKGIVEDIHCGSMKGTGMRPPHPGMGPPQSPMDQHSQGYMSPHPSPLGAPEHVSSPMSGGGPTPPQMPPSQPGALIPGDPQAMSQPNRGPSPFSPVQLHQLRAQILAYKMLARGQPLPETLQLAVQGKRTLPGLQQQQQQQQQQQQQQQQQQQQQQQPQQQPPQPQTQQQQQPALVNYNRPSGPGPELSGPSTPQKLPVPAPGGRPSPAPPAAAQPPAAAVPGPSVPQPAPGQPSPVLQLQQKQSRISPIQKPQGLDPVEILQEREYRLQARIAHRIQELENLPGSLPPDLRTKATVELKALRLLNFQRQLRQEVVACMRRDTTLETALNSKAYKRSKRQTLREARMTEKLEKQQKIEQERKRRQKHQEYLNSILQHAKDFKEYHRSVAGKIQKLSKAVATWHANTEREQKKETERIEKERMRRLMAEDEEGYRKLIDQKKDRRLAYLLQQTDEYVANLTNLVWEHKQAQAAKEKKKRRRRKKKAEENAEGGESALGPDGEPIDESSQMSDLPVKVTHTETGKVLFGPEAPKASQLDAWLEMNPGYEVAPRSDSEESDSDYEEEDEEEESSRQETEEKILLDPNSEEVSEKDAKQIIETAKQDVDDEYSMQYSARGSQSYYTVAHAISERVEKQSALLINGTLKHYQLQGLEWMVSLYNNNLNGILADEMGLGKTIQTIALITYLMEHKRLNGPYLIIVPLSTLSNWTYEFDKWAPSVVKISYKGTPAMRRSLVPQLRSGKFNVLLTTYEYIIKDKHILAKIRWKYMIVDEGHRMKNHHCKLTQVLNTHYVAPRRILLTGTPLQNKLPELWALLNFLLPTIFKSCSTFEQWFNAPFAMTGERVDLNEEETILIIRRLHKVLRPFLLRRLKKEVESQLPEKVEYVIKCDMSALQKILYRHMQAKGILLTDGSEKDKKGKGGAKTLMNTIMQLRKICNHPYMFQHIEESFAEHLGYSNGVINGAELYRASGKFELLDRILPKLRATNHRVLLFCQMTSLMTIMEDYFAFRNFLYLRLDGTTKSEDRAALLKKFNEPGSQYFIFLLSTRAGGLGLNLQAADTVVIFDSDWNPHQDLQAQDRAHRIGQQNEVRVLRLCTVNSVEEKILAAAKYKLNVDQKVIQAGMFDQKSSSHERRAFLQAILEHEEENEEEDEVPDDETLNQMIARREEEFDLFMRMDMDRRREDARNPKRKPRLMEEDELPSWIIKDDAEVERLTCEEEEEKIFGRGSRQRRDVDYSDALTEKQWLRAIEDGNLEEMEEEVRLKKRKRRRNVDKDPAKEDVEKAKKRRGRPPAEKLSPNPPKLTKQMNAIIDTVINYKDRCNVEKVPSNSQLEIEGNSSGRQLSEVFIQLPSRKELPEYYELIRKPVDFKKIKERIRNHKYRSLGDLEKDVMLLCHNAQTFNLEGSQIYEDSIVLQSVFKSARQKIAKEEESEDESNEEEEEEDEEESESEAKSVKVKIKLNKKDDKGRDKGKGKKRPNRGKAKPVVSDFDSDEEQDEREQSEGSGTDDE

Structure (SMILES)	Dmax [1] [%]	DC50 ([1]; A549 cells) [nM]	Dmax [2] [%]	DC50 ([2]; MV4-11 cells) [nM]	Dmax ([3]; 24 h) [%]	DC50 ([3]; MV4-11 cells, 24 h) [nM]	Selectivity in MV411 ([3]; MV4-11 cells)	SMARCA2 MSD A549 degradation 24 h: Average Dmax % ([1]; A549 cells)	SMARCA4 MSD MV411 degradation 24 h: average Dmax % ([2]; MV4-11 cells)	SMARCA2 MSD MV411 degradation 24 h: average Dmax % ([3]; MV4-11 cells, 24 h)
C#Cc1ccc([C@H](C)NC(=O)[C@@H]2C[C@@H](O)CN2C(=O)[C@@H](OC(=O)N2CC3(CC(N4CCC(c5cnc(N6CCc7[nH]c8nnc(-c9ccccc9O)cc8c7[C@H]6C)nc5)CC4)C3)C2)C(C)(C)C)cc1 [I-150]	> 90	10 to 50	70 to 90	> 100	70 to 90	1 to 10	C (C (10-100 fold))	–	–	–
C#Cc1ccc([C@H](C)NC(=O)[C@@H]2C[C@@H](O)CN2C(=O)[C@@H](NC(=O)N2CC3(CC(N4CCC(c5cnc(N6CCc7[nH]c8nnc(-c9ccccc9O)cc8c7[C@H]6C)nc5)CC4)C3)C2)C(C)(C)C)cc1 [I-151]	> 90	10 to 50	50 to 70	> 100	70 to 90	1 to 10	C (C (10-100 fold))	–	–	–
C#Cc1ccc(CNC(=O)[C@@H]2C[C@@H](O)CN2C(=O)[C@@H](NC(=O)N2CCN(CC3CCN(c4cnc(N5CCc6[nH]c7nnc(-c8ccccc8O)cc7c6[C@H]5C)nc4)CC3)CC2)C(C)(C)C)cc1 [I-159]	> 90	> 100	50 to 70	> 100	50 to 70	10 to 100	B (B (>100-500 fold))	–	–	–
C#Cc1ccc(CNC(=O)[C@@H]2C[C@@H](O)CN2C(=O)[C@@H](NC(=O)N2CCN(CC3CCN(c4cnc(N5CCc6[nH]c7nnc(-c8ccccc8O)cc7c6[C@@H]5C)nc4)CC3)CC2)C(C)(C)C)cc1 [I-160]	> 90	> 100	> 90	> 100	70 to 90	10 to 100	D (D (<10 fold))	–	–	–
C#Cc1ccc(CNC(=O)[C@@H]2C[C@@H](O)CN2C(=O)[C@@H](NC(=O)N2CCN(CC3CCN(c4cnc(N5CCN6c7cc(-c8ccccc8O)nnc7NC[C@H]6C5)nc4)CC3)CC2)C(C)(C)C)cc1 [I-163]	> 90	10 to 50	50 to 70	> 100	70 to 90	< 1	B (B (>100-500 fold))	–	–	–
C#Cc1ccc(CNC(=O)[C@@H]2C[C@@H](O)CN2C(=O)[C@@H](NC(=O)N2CC3(CN(CC4CCN(c5cnc(N6CCc7[nH]c8nnc(-c9ccccc9O)cc8c7[C@H]6C)nc5)CC4)C3)C2)C(C)(C)C)cc1 [I-164]	> 90	> 100	< 50	> 100	70 to 90	10 to 100	B (B (>100-500 fold))	–	–	–
C#Cc1ccc(CNC(=O)[C@@H]2C[C@@H](O)CN2C(=O)[C@@H](NC(=O)N2CC3(CN(CC4CCN(c5cnc(N6CCc7[nH]c8nnc(-c9ccccc9O)cc8c7[C@@H]6C)nc5)CC4)C3)C2)C(C)(C)C)cc1 [I-165]	> 90	> 100	70 to 90	> 100	70 to 90	10 to 100	D (D (<10 fold))	–	–	–
C#Cc1ccc(CNC(=O)[C@@H]2C[C@@H](O)CN2C(=O)[C@@H](NC(=O)N2CC3(CC(N4CCC(c5cnc(N6CCc7[nH]c8nnc(-c9ccccc9O)cc8c7[C@H]6C)nc5)CC4)C3)C2)C(C)(C)C)c(O)c1 [I-166]	> 90	< 10	> 90	10 to 100	> 90	1 to 10	C (C (10-100 fold))	–	–	–
C#Cc1ccc([C@H](C)NC(=O)[C@@H]2C[C@@H](O)CN2C(=O)[C@@H](NC(=O)N2CC3(CC(N4CCC(c5cnc(N6CCc7[nH]c8nnc(-c9ccccc9O)cc8c7[C@H]6C)nc5)CC4)C3)C2)C(C)(C)C)c(OC)c1 [I-167]	> 90	10 to 50	70 to 90	> 100	70 to 90	1 to 10	C (C (10-100 fold))	–	–	–
C#Cc1ccc([C@H](CO)NC(=O)[C@@H]2C[C@@H](O)CN2C(=O)[C@@H](NC(=O)N2CC3(CC(N4CCC(c5cnc(N6CCc7[nH]c8nnc(-c9ccccc9O)cc8c7[C@H]6C)nc5)CC4)C3)C2)C(C)(C)C)cc1 [I-168]	> 90	< 10	> 90	< 1	> 90	< 1	C (C (10-100 fold))	–	–	–
C#Cc1ccc([C@H](CCO)NC(=O)[C@@H]2C[C@@H](O)CN2C(=O)[C@@H](NC(=O)N2CC3(CC(N4CCC(c5cnc(N6CCc7[nH]c8nnc(-c9ccccc9O)cc8c7[C@H]6C)nc5)CC4)C3)C2)C(C)(C)C)cc1 [I-169]	> 90	10 to 50	< 50	> 100	70 to 90	1 to 10	B (B (>100-500 fold))	–	–	–
C#Cc1ccc(CNC(=O)[C@@H]2C[C@@H](O)CN2C(=O)[C@@H](NC(=O)N2CC3(CC(N4C[C@H]5CN(c6cnc(N7CCc8[nH]c9nnc(-c%10ccccc%10O)cc9c8[C@H]7C)nc6)C[C@H]5C4)C3)C2)C(C)(C)C)cc1 [I-171]	> 90	> 100	< 50	> 100	50 to 70	10 to 100	C (C (10-100 fold))	–	–	–
C#Cc1ccc(CNC(=O)[C@@H]2C[C@@H](O)CN2C(=O)[C@@H](NC(=O)N2CC3(CC(N4C[C@H]5CN(c6cnc(N7CCc8[nH]c9nnc(-c%10ccccc%10O)cc9c8[C@@H]7C)nc6)C[C@H]5C4)C3)C2)C(C)(C)C)cc1 [I-172]	> 90	> 100	70 to 90	> 100	50 to 70	10 to 100	C (C (10-100 fold))	–	–	–
C#Cc1ccc(CNC(=O)[C@@H]2C[C@@H](O)CN2C(=O)[C@@H](NC(=O)N2CC3(CC(N4CCC5(CCN(c6cnc(N7CCc8[nH]c9nnc(-c%10ccccc%10O)cc9c8C7C)nc6)C5)C4)C3)C2)C(C)(C)C)cc1 (some centres unmarked) [I-173]	> 90	> 100	50 to 70	> 100	50 to 70	10 to 100	C (C (10-100 fold))	–	–	–
C#Cc1ccc(CNC(=O)[C@@H]2C[C@@H](O)CN2C(=O)[C@@H](NC(=O)[C@H]2CCC3(CC2)C[C@H](N2CCC(N4CCC(N5CCN6c7cc(-c8ccccc8O)nnc7NC[C@H]6C5)CC4)CC2)C3)C(C)(C)C)c(F)c1 (some centres unmarked) [I-176]	> 90	> 100	< 50	> 100	50 to 70	10 to 100	C (C (10-100 fold))	–	–	–
C#Cc1ccc(CNC(=O)[C@@H]2C[C@@H](O)CN2C(=O)[C@@H](NC(=O)[C@H]2CCC3(CC2)C[C@H](N2CCC(N4CCC(N5CCN6c7cc(-c8ccccc8O)nnc7NC[C@H]6C5)CC4)CC2)C3)C(C)(C)C)c(OC)c1 (some centres unmarked) [I-178]	–	> 100	–	> 100	–	10 to 100	B (B (>100-500 fold))	A (A (>90% degradation))	C (C (50-70% degradation))	B (B (>70-90% degradation))
C#Cc1ccc(CNC(=O)[C@@H]2C[C@@H](O)CN2C(=O)[C@@H](NC(=O)N2CC3(CC(N4CCC(N5CCC(N6CCc7[nH]c8nnc(-c9ccccc9O)cc8c7[C@@H]6C)CC5)CC4)C3)C2)C(C)(C)C)cc1 [I-180]	> 90	> 100	> 90	> 100	70 to 90	10 to 100	D (D (<10 fold))	–	–	–
C#Cc1ccc(CNC(=O)[C@@H]2C[C@@H](O)CN2C(=O)[C@@H](NC(=O)N2CC3(CC(N4CCC(N5CCC(N6CCc7[nH]c8nnc(-c9ccccc9O)cc8c7[C@H]6C)CC5)CC4)C3)C2)C(C)(C)C)c(F)c1 [I-181]	> 90	> 100	< 50	> 100	50 to 70	10 to 100	B (B (>100-500 fold))	–	–	–
C#Cc1ccc(CNC(=O)[C@@H]2C[C@@H](O)CN2C(=O)[C@@H](NC(=O)N2CC3(CC(N4CCC(N5CCC(N6CCc7[nH]c8nnc(-c9ccccc9O)cc8c7[C@@H]6C)CC5)CC4)C3)C2)C(C)(C)C)c(F)c1 [I-182]	> 90	> 100	70 to 90	> 100	50 to 70	10 to 100	D (D (<10 fold))	–	–	–
C#Cc1ccc(CNC(=O)[C@@H]2C[C@@H](O)CN2C(=O)[C@@H](NC(=O)N2CC3(CC(N4CCC(N5CCC(N6CCc7[nH]c8nnc(-c9ccccc9O)cc8c7[C@H]6C)CC5)CC4)C3)C2)C(C)(C)C)c(OC)c1 [I-183]	> 90	> 100	70 to 90	> 100	70 to 90	10 to 100	C (C (10-100 fold))	–	–	–
